Source: the supplement of paper PMC8882468

Experiments:
Experiment in all cases: CTG-3D luminescence at 96 h relative to day-0 seeding control (ratio to day 0); higher = more growth / less cytotoxicity
HCI-024 [1] = tested on: HCI-024 (organoid from a breast cancer xenograft)
Method: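 PDxO 3D drug screen (set 2), 8-point dose, 96 h; CTG-3D luminescence normalised to day-0 seeding control (mean of 4 wells each).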

HCI-016 = tested on: HCI-016 (organoid from a triple-negative breast cancer xenograft)
Method: (§1)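 PDX-derived breast cancer organoids (PDxO) in 384-well Matrigel plates, 8-point dose (0.000000625-100 uM), 96 h at 37 C; CellTiter-Glo 3D luminescence normalised to the day-0 seeding control (mean of 4 technical replicates over mean of 4 day-0 wells).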

HCI-012 = tested on: HCI-012 (organoid from a breast cancer xenograft)
Method: as §1

HCI-025 = tested on: HCI-025 (organoid from a breast cancer xenograft)
Method: as §1

HCI-024 [2] = tested on: HCI-024; remark: listed apart in the source
Method: as §1

HCI-011.E2 = tested on: HCI-011.E2 (organoid from an ER-positive breast cancer xenograft)
Method: as §1

CC/C(=C(\c1ccc(O)cc1)c1ccc(OCCN(C)C)cc1)c1ccccc1 [4-hydroxytamoxifen]
CTG-3D luminescence at 96 h, HCI-024 [1]
Conditions | 12.5 pM | 0.00025 µM | 0.005 µM | 0.1 µM | 1 µM | 10 µM | 100 µM | 625 fM
days in culture: 202 | 1.48 | 1.18 | 1.56 | 1.67 | 0.953 | 1.09 | 0.00631 | 1.74
days in culture: 231 | 1.05 | 1.07 | 1.18 | 0.978 | 0.782 | 0.83 | 0.00137 | 1.07
days in culture: 254 | 1.94 | 1.16 | 1.05 | 1.38 | 1.28 | 0.958 | 0.00459 | 0.909

O=c1[nH]cc(F)c(=O)[nH]1 [5-fluorouracil]
CTG-3D luminescence at 96 h
Conditions | 12.5 pM | 0.00025 µM | 0.005 µM | 0.1 µM | 1 µM | 10 µM | 100 µM | 625 fM
HCI-011.E2, days in culture: 74 | 1.83 | 2.05 | 1.91 | 1.77 | 2.19 | 2.63 | 1.57 | 1.62
HCI-012, days in culture: 143 | 2.31 | 2.12 | 1.8 | 2.12 | 2.07 | 1.71 | 0.413 | 1.96
HCI-012, days in culture: 162 | 2.26 | 2.44 | 1.98 | 2.86 | 1.98 | 2.16 | 0.425 | 2.74
HCI-012, days in culture: 201 | 2.32 | 2.31 | 1.56 | 1.69 | 2.12 | 1.21 | 1.08 | 1.85
HCI-016, days in culture: 153 | 3.47 | 1.65 | 2.39 | 2.02 | 2.17 | 1.8 | 1.21 | 3.05
HCI-016, days in culture: 172 | 2.33 | 1.93 | 1.51 | 1.52 | 1.52 | 1.1 | 1.12 | 1.92
HCI-016, days in culture: 190 | 1.67 | 1.39 | 1.63 | 1.35 | 1.16 | 1.1 | 1.11 | 1.3
HCI-016, days in culture: 199 | 1.49 | 1.49 | 1.44 | 1.47 | 1.68 | 1.21 | 1.18 | 1.73
HCI-024 [2], days in culture: 105 | 1.58 | 1.5 | 1.45 | 1.66 | 1.59 | 1.53 | 0.681 | 2.03
HCI-024 [2], days in culture: 122 | 2.23 | 2.19 | 1.64 | 1.97 | 1.98 | 2.04 | 0.857 | 3.11
HCI-024 [2], days in culture: 163 | 2.3 | 2.61 | 1.89 | 2.32 | 2.29 | 1.9 | 1.21 | 2.13
HCI-025, days in culture: 172 | 2.59 | 1.93 | 3.91 | 1.56 | 1.55 | 0.982 | 0.597 | 2.53
HCI-025, days in culture: 209 | 2.04 | 2.56 | 1.99 | 1.52 | 1.7 | 1.25 | 0.569 | 1.37
HCI-025, days in culture: 218 | 1.7 | 1.9 | 1.92 | 1.65 | 1.37 | 1.61 | 0.855 | 1.86

HCI-011.E2
Conditions | CTG-3D luminescence at 96 h
12.5 pM | 1.56
0.00025 µM | 1.46
0.005 µM | 1.7
0.1 µM | 1.81
1 µM | 1.73
10 µM | 2.08
100 µM | 1.35
625 fM | 1.63
